Results reported in US11529350B2, “Tyrosine kinase non-receptor 1 (TNK1) inhibitors and uses thereof” (Sumitomo Pharma Oncology, Inc., priority 2019, dated 2022).

Columns and labels:
[1] = tested on: A549 cells; experiment: Combination with bortezomib, A549 cell confluency (Incucyte); format: cell-based; settings: 1 nM alone, two independent experiments
Description: A549 cells were seeded in log phase (e.g., at 40-60% confluency) in a well plate. Drug treatments were: no drug treatment, DMSO, bortezomib at 50 nM, 10 nM, 5 nM, 2 nM or 1 nM, Example No. 13 at 10 nM, and bortezomib 50 nM, 10 nM, 5 nM, 2 nM or 1 nM combined with Example No. 13 at 10 nM. The DMSO concentrations were kept constant (including DMSO control) to control for any confounding DMSO toxicity.
Drug addition protocol: On day 1, cells were seeded at 60,000 cells/well, and incubated for 24 hours to allow adherence. On day 2, media was aspirated and replaced with 500 μl of the drug media preparations described below in correlating wells. The plates were placed in Incucyte for 7-14 days, and cell confluency was measured every 2 hours. […]

[2] = molecular target: T1, TNK1 (Homo sapiens, UniProt Q13470); experiment: RBC HotSpot Kinase Assay; format: biochemical; design: purchased Reaction Biology Corp., Malvern, Pa; settings: ATP 10 μM
T1 sequence (Q13470 1-666): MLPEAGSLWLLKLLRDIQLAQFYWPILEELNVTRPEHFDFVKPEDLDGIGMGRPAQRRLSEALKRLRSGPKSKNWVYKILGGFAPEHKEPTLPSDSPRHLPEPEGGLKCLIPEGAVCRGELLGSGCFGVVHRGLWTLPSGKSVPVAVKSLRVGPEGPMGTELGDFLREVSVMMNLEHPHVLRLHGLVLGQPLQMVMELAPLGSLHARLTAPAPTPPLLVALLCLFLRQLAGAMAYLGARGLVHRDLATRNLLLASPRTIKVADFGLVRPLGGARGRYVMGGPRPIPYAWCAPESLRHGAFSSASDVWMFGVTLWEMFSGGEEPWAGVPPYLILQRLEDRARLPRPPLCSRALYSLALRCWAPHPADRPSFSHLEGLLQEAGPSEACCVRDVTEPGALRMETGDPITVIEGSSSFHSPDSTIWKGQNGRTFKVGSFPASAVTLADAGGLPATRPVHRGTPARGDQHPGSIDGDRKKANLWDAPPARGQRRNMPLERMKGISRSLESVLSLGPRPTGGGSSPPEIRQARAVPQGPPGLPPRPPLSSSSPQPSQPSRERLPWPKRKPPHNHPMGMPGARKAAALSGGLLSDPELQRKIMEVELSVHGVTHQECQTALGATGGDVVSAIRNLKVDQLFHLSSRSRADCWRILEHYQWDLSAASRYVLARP
Description: The RBC HotSpot Kinase assay (Reaction Biology Corp., Malvern, Pa.) was used to evaluate the ability of test compounds to modulate (e.g., inhibit) the enzymatic activity of human TNK1 (UniProt Accession No. Q13470) in the following reaction:
Reagent: Base Reaction buffer; 20 mM Hepes (pH 7.5), 10 mM MgCl2, 1 mM EGTA, 0.02% Brij35, 0.02 mg/ml BSA, 0.1 mM Na3VO4, 2 mM DTT, 1% DMSO. Required cofactors were added individually to each kinase reaction.
Compound handling: Test compounds were dissolved in 100% DMSO to specific concentration. The serial dilution was conducted by Integra Viaflo Assist in DMSO.
1. Prepared substrate (peptide substrate, poly[Glu:Tyr] (4:1), 0.2 mg/ml; ATP 10 μM) in freshly prepared Reaction Buffer;
2. Delivered any required cofactors to the substrate solution;
3. Delivered kinase (TNK1) into the substrate solution and gently mixed;
4. Delivered compounds in 100% DMSO into the kinase reaction mixture by Acoustic technology (Echo550; nanoliter range), incubated for 20 minutes at room temperature;
5. Delivered ^33P-ATP (specific activity 10 μCi/μl) into the reaction mixture to initiate the reaction;
6. Incubated for 2 hours at room temperature;
7. Detected radioactivity by filter-binding method;
8. Kinase activity data were expressed as the percent remaining kinase activity in test samples compared to vehicle (dimethyl sulfoxide) reactions. IC50 values and curve fits were obtained using Prism (GraphPad Software).

[3] = molecular target: T1, TNK1; experiment: TNK1 NanoBRET target engagement assay (HEK293); format: cell-based; design: host or cells: HEK293; settings: HEK293 cells, 2 hours; read-out: NanoBRET TE Assay (HEK293) IC50
Source text: The NanoBRET target engagement (TE) assay (Promega, Madison, Wis.) enables the interrogation of the displacement of a tracer compound in the active site of a recombinant kinase by a test compound in the intracellular setting. The assay enables simultaneous testing of permeability, solubility, and kinase inhibition, and tests the specific interaction of test agents with a kinase of interest, here, TNK1. The assay is based on the principle of bioluminescence resonance energy transfer (BRET). In the assay, a plasmid-encoded, luciferase-tagged form of TNK1 is transfected into cells. A tracer compound is tagged with a fluorophore that fluoresces when bound to the TNK1 protein. Readout is luminescence and fluorescence. Test compounds show activity by displacing the tracer, thus disrupting BRET.
Methods: The TNK1 NanoBRET TE assays were performed according to the manufacturer's protocol. Briefly, Nanoluc-TNK1 Fusion Vector (Promega, Madison, Wis., Cat. No. NV2181) was transfected into HEK293 cells in bulk (8×10^6 cells in a T175 flask). Up to 30 hours post-transfection, cells were harvested by trypsinization, resuspended at a concentration of 2×10^5 cells/mL, and seeded in 96-well plates at 85 μL/well. A test compound and the K5 tracer were added to each well, and the cells were incubated for 2 hours. Luminescence ([…]) and fluorescence ([…]) were measured to determine a BRET ratio. IC50 values were determined from the BRET ratios using the Graphpad Prism software (GraphPad Software, San Diego, Calif.).

[4] = tested on: phospho-STAT5 in L540 cells; experiment: In vitro pSTAT5 assay (ELISA) in L540 cells; format: cell-based; settings: Homo sapiens, L-540, 24 hours, normalized to cell viability, read-out: P-STAT5 Assay IC50
Description: The L540 cell line harbors a truncating mutation in the C-terminal regulatory region of the protein. As a consequence, TNK1 in L540 cells is constitutively active in phosphorylating key proteins, including STAT5. In TNK1 wild-type conditions (e.g., K562 CML cells), STAT5 phosphorylation is achieved in a TNK1-independent fashion. As such, reductions in phospho-STAT5 signal specific to the L540 cells are a good readout of TNK1 inhibitor function.
Methods: The in vitro pSTAT5 assay was performed with STAT5 AB (pY964/699) SimpleStep ELISA Kit (Abcam No. ab176656) according to the manufacturer's protocol. Briefly, L540 cells were grown in RPMI1640 media under standard culture conditions (10% FBS with penicillin/streptomycin). To assess test compound effects, cells were plated in 96 well plates (250,000 cells/mL) and allowed to grow overnight. Cells were subsequently treated with varying concentrations of test compound for 24 hours, before being harvested and interrogated with the STAT5 AB (pY964/699) SimpleStep ELISA Kit according to the manufacturer's protocol. Phospho-STAT5 signal was normalized to cell viability, as assessed by the CellTiter-Glo assay (Promega, Cat. No. G7570) on treated cells. TNK1 inhibitor IC50s were determined using Graphpad Prism software on normalized phospho-STAT5 measurements.

Row | IC50 [2] [nM] | IC50 [3] [nM] | Compound | cell growth inhibition, alone [1] | IC50 [4] [nM]
1 | – | – | CC(C)C[C@H](NC(=O)[C@H](Cc1ccccc1)NC(=O)c1cnccn1)B(O)O [Bortezomib, bortezomib, reference compound] | no inhibition of cell growth | –
2 | < 5 | > 1000 | CN1CCN(c2c(Cl)cc(Nc3ncc(Cl)c(Nc4cccnc4N(C)C)n3)c3ccccc23)CC1 [compound 7, 5-chloro-N^2-(3-chloro-4-(4-methylpiperazin-1-yl)naphthalen-1-yl)-N^4-(2-(dimethylamino)pyridin-3-yl)pyrimidine-2,4-diamine] | – | 5 to 50
3 | < 5 | 150 to 1000 | COc1cc(N2CCN(C)CC2)c(C)cc1Nc1ncc(Cl)c(Nc2cccnc2N2CCCC2)n1 [compound 8, 5-chloro-N^2-(2-methoxy-5-methyl-4-(4-methylpiperazin-1-yl)phenyl)-N^4-(2-(pyrrolidin-1-yl)pyridin-3-yl)pyrimidine-2,4-diamine] | – | 5 to 50
4 | < 5 | 150 to 1000 | COc1cc(N2CCN(C)CC2)c(C)cc1Nc1ncc(I)c(Nc2cccnc2N(C)C)n1 [compound 11, N^4-(2-(dimethylamino)pyridin-3-yl)-5-iodo-N^2-(2-methoxy-5-methyl-4-(4-methylpiperazin-1-yl)phenyl)pyrimidine-2,4-diamine] | – | 5 to 50
